In publication PMC9839475 (Journal of acquired immune deficiency syndromes (1999), 2023):
Where two headings read alike, the source gives them in different places. Each block holds one compound with its values, some of them ahead of it.

Experiments:
[1] = in vivo
[2] = parameters: species or system adolescents with HIV-1; details: in vivo
[3] = Cohort 2 sparse PK weeks 4-24, DOR FDC once daily; assay type: in vivo, adolescents with HIV-1
[4] = Cohort 1 intensive PK after a single 100 mg doravirine tablet; parameters: species or system adolescents with HIV-1; details: in vivo, po
[5] = adults taking 200mg daily; upper PK target of Cohort 1; cited from earlier work
HIV-1 = details: cited from earlier work
[6] = Cohort 2 week 1 intensive PK, DOR FDC once daily; assay type: in vivo, adolescents with HIV-1; details: for time at which Cmax occurred: Cohort 2, week 1, oral DOR/3TC/TDF, intensive PK
[7] = Cohort 1 safety through week 2; assay type: in vivo, adolescents with HIV-1
CYP3A = details: cited from earlier work

- grade 3 diarrhea and gastroenteritis [1]: one participant
- participants with Grade 1 dizziness assessed as related to the study drug [1]: 2.2%
- participants with concomitant grade 3 increased creatinine [1]: 2
- participants with grade 3 decreased eGFR [1]: Three participants
- Alanine Aminotransferase, mean change [95% CI] [2]: 1.2 [−7.3, 9.6] IU/L
- Alkaline Phosphatase, mean change [95% CI] [2]: −20.7 [−35.1, −6.3] IU/L
- Aspartate Aminotransferase, mean change [95% CI] [2]: 0.8 [−5.1, 6.7] IU/L
- Bilirubin, mean change [95% CI] [2]: −0.0 [−0.2, 0.1] mg/dL
- Creatinine, mean change [95% CI] [2]: 0.0 [0.0, 0.1] mg/dL
- HDL Cholesterol, mean change [95% CI] [2]: −11.3 [−15.9, −6.6] mg/dL
- LDL Cholesterol, mean change [95% CI] [2]: −12.5 [−20.7, −4.2] mg/dL
- eGFR from Creatinine Adjusted for BSA, mean change [95% CI] [2]: −6.5 [−15.2, 2.2] mL/min/1.73m^2
Compound: doravirine/lamivudine/tenofovir disoproxil fumarate [DOR FDC]
- grade 3 increased ALT [1]: one participant
- participants meeting safety endpoint eGFR <60 ml/min/1.73m^2 [1]: No participant
- participants who experienced at least one adverse event [1]: 45 participants
- participants with no adverse events [1]: 0 (0) n (%)
- participants with one or more Grade 3 or greater adverse events [1]: 9 (20.0) n (%)
- participants with one or more Grade 3 or greater drug-related adverse events [1]: 0 (0) n (%)
- participants with one or more adverse events [1]: 45 (100.0) n (%)
- participants with one or more drug-related adverse events [1]: 1 (2.2) n (%)
- participants with one or more grade 3 adverse events [1]: 20%
- participants with one or more serious adverse events [1]: 1 (2.2) n (%)
- participants with one or more serious drug-related adverse events [1]: 0 (0) n (%)
- tolerability [1]: well tolerated

Compound: Cn1c(Cn2ccc(C(F)(F)F)c(Oc3cc(Cl)cc(C#N)c3)c2=O)n[nH]c1=O [Doravirine]
- geometric mean steady state doravirine concentrations ([3]; Cohort 2, all participants, Week 4 through Week 24): > 560 nM
- DOR plasma concentration, geometric mean ([3]; Cohort 2, week 4, predose, N=45, DOR/3TC/TDF once daily): 747 nM
- DOR plasma concentration, geometric mean ([3]; Cohort 2, week 8, random time, N=44, DOR/3TC/TDF once daily): 1320 nM
- DOR plasma concentration, geometric mean ([3]; Cohort 2, week 12, random time, N=44, DOR/3TC/TDF once daily): 2020 nM
- DOR plasma concentration, geometric mean ([3]; Cohort 2, week 24, 0.5–2 hours post dose, N=43, DOR/3TC/TDF once daily): 1870 nM
- DOR plasma concentration, geometric mean ([3]; Cohort 2, week 24, predose, N=43, DOR/3TC/TDF once daily): 1090 nM
- AUC(0-inf) ([4]; human): 34.8 µM·h
- Tmax, median (range) ([4]; human): 3.78 (1.00–7.75) h
- Vd/F ([4]; human): 115 L
- half-life ([4]; human): 708 min
- Tmax ([4]; human, Tmax, median (range)): ~4 h
- Cl/F, geometric mean (geometric CV%) [4]: 6.75 (43) L/h
- geometric AUC0–24hr at steady-state [5]: 64 µM·h
- lipid levels compared to darunavir/ritonavir (HIV-1): significantly improved lipid levels
- discontinuations due to adverse events (HIV-1; week 48, doravirine plus 2 NRTIs, adults naïve to antiretroviral therapy): < 1%
- virologic response versus darunavir/ritonavir (HIV-1; week 48, plus 2 NRTIs): not inferior
- Cl/F, geometric mean (geometric CV%) ([6]; Cohort 2, week 1, 100 mg daily as DOR FDC, n=10): 10.3 (47) L/h
- C24,ss observed, geometric mean (geometric CV%) ([6]; Cohort 2, week 1, 100 mg daily as DOR FDC, n=10, 8/10 switched from efavirenz): 282 (74) nM
- Tmax ([6]; human, plasma, oral): ~2 h
- Cmax ([6]; human, plasma, po, 100 mg): 2130 nM
- Tmax ([6]; human, plasma, po, 100 mg): 1.95 h
- participants who died due to adverse event ([7]; Cohort 1, N=9, 100mg single dose, through week 2): 0 (0) n (%)
- Grade 3 or 4 adverse events ([7]; human, in vivo, 2 weeks): no Grade 3 or 4 adverse events
- participants with at least one Grade 1 or Grade 2 adverse event ([7]; human, in vivo, 2 weeks): 44.4%
- tolerability ([7]; in vivo): well tolerated

- time at which Cmax occurred [6]: approximately 1 hour
Compound: C[C@H](Cn1cnc2c(N)ncnc21)OCP(=O)(O)O [tenofovir]

Compound: O=C1Nc2ccc(Cl)cc2[C@@](C#CC2CC2)(C(F)(F)F)O1 [efavirenz]
- CYP3A induction (CYP3A): moderate CYP3A inducer

- time at which Cmax occurred [6]: ~2 h
Compound: Nc1ccn([C@@H]2CS[C@H](CO)O2)c(=O)n1 [lamivudine]
